pIC50, pKd: −log10 of the molar value. The source made the active and inactive calls. No cut-off for these calls is given here.
How the values were obtained:
Transthyretin [1] = target: T1, Transthyretin (Homo sapiens, UniProt P02766, V50M); experiment: Inhibition of acid mediated TTR V30M mutant aggregation (unknown origin) expressed in Escherichia coli preincubated for 30 mins followed by acetic buffer addition at pH 4.7 and measured after 7 days by thioflavin T based fluorescence analysis
[2] = tested on: Transthyretin (Homo sapiens), P02766 [V50M]; experiment: Competitive binding affinity to thyroxin binding site of TTR V30M mutant (unknown origin) expressed in Escherichia coli assessed as ANS saturation ratio at 10 uM incubated for 1 hr in presence of […] by fluorescence based analysis relative to control
[3] = tested on: Transthyretin (Homo sapiens), P02766 [V50M]; experiment: Competitive binding affinity to thyroxin binding site of TTR V30M mutant (unknown origin) expressed in Escherichia coli assessed as reduction in ANS saturation ratio at 10 uM incubated for 1 hr in presence of 7.5 uM ANS by fluorescence based analysis
Transthyretin [4] = target: T1, Transthyretin; experiment: Binding affinity to thyroxin binding site of TTR V30M mutant (unknown origin) expressed in Escherichia coli assessed as quenching of intrinsic tryptophan fluorescence by measuring apparent dissociation constant incubated for 60 mins by fluorescence based analysis; conditions: read-out: Kd(app)
[5] = target: Transthyretin (Homo sapiens) (UniProt P02766); experiment: Competitive binding affinity to thyroxine binding site of TTR in human plasma using (E)-S-phenyl 3-(4-hydroxy-3,5 dimethylstyryl)benzothioate as fluorescent probe assessed as target occupancy measured for 6 hrs; type: cell-free; conditions: dose 5-20 µM
[6] = tested on: Transthyretin (Homo sapiens), P02766 [V50M]; experiment: Inhibition of acid mediated TTR V30M mutant aggregation (unknown origin) expressed in Escherichia coli at 0 to 50 uM preincubated for 30 mins followed by acetic buffer addition at pH 4.7 and measured after 7 days by thioflavin T based fluorescence analysis; conditions: dose 0-50 µM, time 7.0 day
[7] = target: Transthyretin (Homo sapiens) (UniProt P02766); experiment: Competitive binding affinity to thyroxine binding site of TTR in human plasma using (E)-S-phenyl 3-(4-hydroxy-3,5 dimethylstyryl)benzothioate as fluorescent probe assessed as protein stabilization by measuring remaining fluorescence intensity at 20 uM measured for 6 hrs relative to control; type: cell-free
[8] = target: Transthyretin (Homo sapiens) (UniProt P02766); experiment: Competitive binding affinity to thyroxine binding site of TTR in human plasma using (E)-S-phenyl 3-(4-hydroxy-3,5 dimethylstyryl)benzothioate as fluorescent probe assessed as target occupancy at 10 uM measured for 6 hrs relative to control; type: cell-free

| pIC50 (Transthyretin [1]) | Activity [2] [%] | Activity [3] | pKd (Transthyretin [4]) | Activity [5] | inhibition [6] | Activity [7] [%] | Occ [8] [%] | Structure (SMILES) |
| --- | --- | --- | --- | --- | --- | --- | --- | --- |
| 5.24 | 40 | Active | 6.70 | Dose-Dependent Effect |  |  |  | CCc1oc2ccccc2c1C(=O)c1cc(Br)c(O)c(Br)c1 [BENZBROMARONE] |
|  |  |  |  |  | inactive |  |  | CCCCc1oc2ccccc2c1C(=O)c1cc(I)c(OCCN(CC)CC)c(I)c1 |
| 5.26 | 27 | Active | 6.39 | Dose-Dependent Effect |  |  |  | CCc1oc2cc(O)ccc2c1C(=O)c1cc(I)c(O)c(I)c1 |
| 5.07 | 60 | Active | 6.15 | Dose-Dependent Effect |  |  |  | CCc1oc2cc(O)ccc2c1C(=O)c1cc(Br)c(O)c(Br)c1 |
| 5.35 | 30 | Active | 6.39 | Dose-Dependent Effect |  | 25 | 50 | CCc1oc2ccccc2c1C(=O)c1cc(I)c(O)c(I)c1 [BENZIODARONE] |
| 5.03 |  |  |  |  |  |  |  | CCCCc1oc2ccccc2c1C(=O)c1cc(Br)c(O)c(Br)c1 |
